# Assay results as given in patent US12152034B2, “FGFR inhibitors and methods of making and using the same” (Relay Therapeutics, Inc., priority 2020, dated 2024).
# Entries after “also recorded” stand apart in the source; their conditions may differ.
# What was measured:
# Type in all cases: physicochemical
# [1] = Solubility in organic solvents quoted in competitive suspension equilibration studies; conditions: organic solvent or mixture
# [2] = Solubility in Fasted State Simulated Intestinal Fluid (FaSSIF) and final pH in solution, salt screen of compound I-2; conditions: for Final pH: final pH in solution of the FaSSIF solubility sample
# Procedure: (§1) The free base of Compound I-1 (compound I-2, 30 mg) was suspended in IPA (20 Vol., 600 μl at 50° C.). The suspensions were then cooled down to 5° C. at 0.1° C./min and were held at this temperature for 16 hrs. Stirring (500 rpm) was maintained throughout. Any gums that formed were maturated between 25 and 50° C. (4 hours at each temperature for 24 hrs). The suspensions were isolated by filtration under suction and air dried then analysed by XRPD. Any new patterns identified by XRPD were analysed further by NMR, TGA, DSC and stability at 40 C/75% RH for 1 week.
# Several samples were analyzed for solubility in Fasted State Simulated Intestinal Fluid (FaSSIF) and final pH in solution.
# [3] = Hygroscopicity suggested by Thermal Gravimetric Analysis (TGA) weight loss; conditions: suggested by TGA weight loss / 1H NMR solvent content
# Procedure: Thermal Gravimetric Analysis (TGA): TGA data was collected on a TA Instruments Q5000 TGA. A predefined amount of the sample, 2.0 to 10.0 mg, was placed in an aluminum pan and heated at 10° C./minute from 40° C. to 300° C., or varied as experimentation dictated. A purge of dry nitrogen at 25 ml/minute was maintained over the sample. The instrument control and data acquisition are acquired using Q Advantage software release version 5.5.23. The data was processed and presented using the TA Universal Analysis 2000 software version 4.5A build 4.5.0.5.
# [4] = Storage at 40° C./75% RH for 7 days (one week), form checked by XRPD; conditions: 40° C./75% RH, one week (7 days)
# Procedure: as §1, with “The” for “The free base of Compound I-1 (compound I-2, 30 mg) was suspended in IPA (20 Vol., 600 μl at 50° C.). The”
# [5] = Solubility assessment in solvents by aliquot addition (5-40 vol, 25° C., then heating); conditions: for Observation after treatment: 40 vol; for solubility in the solvents tested (in words): 13 solvents, up to 40 vol
# Procedure: Compound II-1 (40 mg) was treated with an aliquot of solvent (200 μl for 5 vol, 400 μl for 10 vol, 800 μl for 20 vol) and left to stir at 25° C. for 15 minutes. After 15 minutes, suspensions were treated with another aliquot of solvent and left to stir for the same duration again. Any solutions were removed from stirring and further solvent additions. This procedure was repeated up to 40 vol.
# At 40 vol, any remaining suspensions were heated to 40° C. at a rate of 10° C./min. Samples that remained as suspensions at 40° C. were moved to the maturation chamber (RT/50° C.) for 4 days. All solutions from solvent additions were heated to 50° C. before cooling to 5° C. at a rate of 0.1° C./min, then held at 5° C. overnight. […]
# [6] = Solubility measurements in SGF, FeSSIF and FaSSIF with XRPD of residual solids
# Excerpt: The results from the solubility measurements in simulated gastric fluid (SGF), simulated fed state conditions in the small intestines (FeSSIF), and simulated fasting state conditions in the small intestines fluid (FaSSIF) are summarised in Table 12. The salts show reduced solubility in SGF compared to the free form.
# Crystalline FB Form A, HCl Form A, and the sufate salt Form A were scaled up for solubility analysis.
# HCl Form A was successfully scaled up for solubility analysis.
# [7] = listed as Compound III-1 Form A
# [8] = listed as Compound III-1 Form B
compound,measurement,setting,value
"C=C(C)C(=O)Nc1ccc(-c2c(-c3ccc(Oc4nccc(C)n4)c(F)c3)c3c(N)ncnc3n2C)cc1.Cl [Compound I-1, N-(4-(4-amino-5-(3-fluoro-4-((4-methylpyrimidin-2-yl)oxy)phenyl)-7-methyl-7H-pyrrolo[2,3-d]pyrimidin-6-yl)phenyl)methacrylamide hydrochloride]",Solubility,[1]; ethanol,2300 µg/mL
same,Solubility,[1]; methanol,18700 µg/mL
same,Solubility,"[2]; Fasted State Simulated Intestinal Fluid (FaSSIF), fassif, thermodynamic from solid, Fasted State Simulated Intestinal Fluid, solids from salt screen in IPA",5.1 µg/mL
same,Final pH,[2],4.06
C=C(C)C(=O)Nc1ccc(-c2c(-c3ccc(Oc4nccc(C)n4)c(F)c3)c3c(N)ncnc3n2C)cc1 [Compound I-6],Solubility in FaSSIF,"[2]; Fasted State Simulated Intestinal Fluid, solids from salt screen in IPA, listed as Mesylate - Form A",6.5 µg/mL
same,Final pH,[2]; listed as Mesylate - Form A,4.82
C=C(C)C(=O)Nc1ccc(-c2c(-c3ccc(Oc4nccc(C)n4)c(F)c3)c3c(N)ncnc3n2C)cc1 [Compound I-3],Solubility in FaSSIF,"[2]; Fasted State Simulated Intestinal Fluid, solids from salt screen in IPA, listed as HBr - Form A",4.5 µg/mL
same,Final pH,[2]; listed as HBr - Form A,5.5
C=C(C)C(=O)Nc1ccc(-c2c(-c3ccc(Oc4nccc(C)n4)c(F)c3)c3c(N)ncnc3n2C)cc1 [Compound I-4],Solubility in FaSSIF,"[2]; Fasted State Simulated Intestinal Fluid, solids from salt screen in IPA, listed as Sulfate - Form B",1.2 µg/mL
same,Final pH,[2]; listed as Sulfate - Form B,5.86
C=C(C)C(=O)Nc1ccc(-c2c(C3=CC[C@H](C(=O)N4CCCC4)CC3)c3c(N)ncnc3n2C)c(C)c1.CS(=O)(=O)O [Compound II-5],hygroscopicity (in words),[3],hygroscopic
same,XRPD after storage at 40° C./75% RH for 7 days,[4],no change
"C#Cc1cc(OC)c(-c2c(-c3ccc(Oc4nccc(C)n4)c(F)c3)c3c(C)ncnc3n2C)cn1 [Compound III-1, 6-(6-ethynyl-4-methoxypyridin-3-yl)-5-(3-fluoro-4-((4-methylpyrimidin-2-yl)oxy)phenyl)-4,7-dimethyl-7H-pyrrolo[2,3-d]pyrimidine]",Observation after treatment,"[5]; 2-Propanol, after maturation (RT/50° C.) 4 days",Suspension
same,Observation after treatment,"[5]; 10% Water/IPA, after maturation (RT/50° C.) 4 days",Suspension
same,Observation after treatment,"[5]; 10% Water/MeCN, after cooling from 50° C. to 5° C.",Clear
same,solubility (solvent volumes to give a clear solution),"[5]; 10% water/MeCN, 50° C.",40 vol
same,solubility in the solvents tested (in words),[5],low solubility
same,Observation after treatment,"[5]; Acetone, after cooling from 50° C. to 5° C.",Very thin
same,Observation after treatment,"[5]; Ethanol, after maturation (RT/50° C.) 4 days",Suspension
same,Observation after treatment,"[5]; Ethyl acetate, after maturation (RT/50° C.) 4 days",Suspension
same,Observation after treatment,"[5]; Isopropyl acetate, after maturation (RT/50° C.) 4 days",Suspension
same,Observation after treatment,"[5]; MEK, after maturation (RT/50° C.) 4 days",Suspension
same,Observation after treatment,"[5]; Methanol, after cooling from 50° C. to 5° C.",Very thin
same,Observation after treatment,"[5]; TBME, after maturation (RT/50° C.) 4 days",Suspension
same,solubility (solvent volumes to give a clear solution),"[5]; THF, 25° C.",40 vol
same,Observation after treatment,"[5]; THF, after cooling from 50° C. to 5° C.",Clear
same,Observation after treatment,"[5]; Water, after maturation (RT/50° C.) 4 days",Suspension
same,solubility (solvent volumes to give a clear solution),"[5]; acetone, 50° C.",40 vol
same,solubility (solvent volumes to give a clear solution),"[5]; methanol, 50° C.",40 vol
same,Observation after treatment,"[5]; n-Heptane, after maturation (RT/50° C.) 4 days",Suspension
same,XRPD of residual solids after solubility measurement,"[6]; all media (SGF, FeSSIF, FaSSIF)",remained unchanged
same,solubility in FaSSIF (in words),[6]; simulated fasting state intestinal fluid,lowest solubility
same,hygroscopicity (in words),[3]; [7],potentially hygroscopic
same,hygroscopicity (in words),[3]; [8],possibly hygroscopic
same,XRPD after storage at 40° C./75% RH for 7 days,[4]; [7],no change in form
same,XRPD after storage at 40° C./75% RH for 7 days,[4]; [8],conversion to Form A (plus additional peaks)
same,XRPD after storage at 40° C./75% RH for 7 days,[4]; listed as Compound III-1 Form C,no change in form
"C=C(C)C(=O)Nc1ccc(-c2c(C3=CC[C@H](C(=O)N4CCCC4)CC3)c3c(N)ncnc3n2C)c(C)c1 [Compound II-1, (R)—N-(4-(4-amino-7-methyl-5-(4-(pyrrolidine-1-carbonyl)cyclohex-1-en-1-yl)-7H-pyrrolo[2,3-d]pyrimidin-6-yl)-3-methylphenyl)methacrylamide]",solubility (solvent volumes to give a clear solution),"[5]; 10% H2O/IPA, 25° C.",10 vol
same,solubility in the solvents tested (in words),[5],reasonable solubility in polar solvents
same,solubility (solvent volumes to give a clear solution),"[5]; THF, 25° C.",20 vol
same,solubility (solvent volumes to give a clear solution),"[5]; ethanol, 25° C.",20 vol
same,hygroscopicity (in words),[3]; listed as Compound 1 Pattern 2,hygroscopic
same,hygroscopicity (in words),[3]; listed as Compound II-1 Form A,slightly hygroscopic
same,XRPD after storage at 40° C./75% RH for 7 days,[4]; listed as Compound II-1 Form A,no change; also recorded: Unchanged
same,XRPD after storage at 40° C./75% RH for 7 days,[4]; listed as Compound II-1 Form B,Unchanged
